Values after ≈ are worked out from the molar mass of the structure shown. Values joined by “and” are separate entries in the source; they are usually repeats but may differ in a detail not shown here. Identical values can stand only once.
Assays:
[1] = DPPH radical scavenging assay; conditions: ±SD; 30 min, room temperature
Procedure: The DPPH radical scavenging assay of samples was performed with ascorbic acid as a positive control. Briefly, 100 μL of different concentrations of the complexes, dissolved in DMSO, was mixed with 100 μL of 0.06 mM DPPH methanolic solution and incubated at room temperature in the dark for 30 min. The change in absorbance at λ = 517 nm was analyzed with the use of a 96-well microplate reader (Epoch, BioTek System, Winooski, VT, USA). The control was composed of DPPH and DMSO. DPPH inhibition was calculated according to the following equation:DPPH Inhibition (%) = [(Acontrol − Asample)/Acontrol] × 100% The radical scavenging activity of the samples was shown as the IC50 value (the concentration of the analyzed samples that caused a decrease in the non-reduced form of the DPPH radical by 50%).

[2] = ABTS radical scavenging assay; conditions: ±SD; 10 min, 30 °C
Procedure: The ABTS radical scavenging assay of samples (ligands or complexes) was performed with ascorbic acid as a positive control. Briefly, 30 μL of different concentrations of the samples, dissolved in DMSO, was mixed with 170 μL of ABTS solution (2 mM ABTS diammonium salt, 3.5 mM potassium persulfate) and completed with water to a final volume of 300 μL. ABTS solution with DMSO was used as a control. […] ABTS inhibition was calculated according to the following equation:ABTS Inhibition (%) = [(Acontrol − Asample)/Acontrol] × 100% The radical scavenging activity of the samples was shown as the IC50 value (the concentration of the analyzed samples that caused a decrease in the non-reduced form of the ABTS radical by 50%).

A375 (melanoma) = assay: MTT cytotoxicity assay on A375 cells; type: cell-based, human; conditions: for IC50 ± SD, A375: 24 h incubation; for IC50: Homo sapiens, A-375, 24 h incubation, read-out: IC50 ± SD, A375
Procedure: (§1) Cytotoxic activity of the investigated compounds was evaluated against T98G (glioblastoma), HepG2 (hepatoma), LS-180 (colon cancer) and A375 (melanoma) cell lines. Human normal skin fibroblasts, CCD-1059Sk (CRL-2072), were used as reference (non-cancerous) cells. All of the cell lines were obtained from American Type Culture Collection (ATCC; Manassas, VA, USA). A375, T98G and CCD-1059Sk cells were cultured in Dulbecco’s Modified Eagle’s Medium (DMEM) (Sigma Aldrich, St. Louis, MO, USA) supplemented with 10% FBS, penicillin (100 U/mL) and streptomycin (100 μg/mL). LS-180 and HepG2 cells were cultured in Eagle’s Minimum Essential Medium supplemented with 10% FBS, penicillin (100 U/mL) and streptomycin (100 μg/mL). All of the cells were maintained at 37 °C in a humidified atmosphere of 5% CO2. The compounds were dissolved in DMSO in order to obtain stock solutions. At the day of the experiment, the suspension of cells (1 × 10^5 cells/mL) was distributed onto 96-well plates at a volume of 100 μL/well. After attachment, the cells were treated with the increased concentrations of the tested compounds in medium containing 2% FBS and incubated for 24 h. Then, the medium was removed from wells, and cells were rinsed with PBS. Afterwards, 15 μL of MTT working solution (5 mg/mL in PBS) was added to each well, and the plates were incubated for 3 h. Subsequently, 100 μL of 10% SDS solution was added to each well in order to dissolve the precipitated formazan crystals. After overnight incubation at 37 °C, the absorbance of the obtained solution was measured at λ = 570 nm using a microplate reader (Epoch, BioTek Instruments, Inc., Winooski, VT, USA). At least two independent experiments were performed in triplicate. […] IC50 values of the investigated derivatives and positive control (etoposide) were calculated using the IC50 online calculator [101].

HepG2 (hepatoma) = assay: MTT cytotoxicity assay on HepG2 cells; type: cell-based, human; conditions: MTT, 24 h incubation; for IC50: Homo sapiens, HepG2, read-out: IC50 ± SD, HepG2
Procedure: as §1

LS-180 (colon cancer) = assay: MTT cytotoxicity assay on LS-180 cells; type: cell-based, human; conditions: for IC50 ± SD, LS180: 24 h incubation; for IC50: Homo sapiens, LS180, 24 h incubation, read-out: IC50 ± SD, LS180
Procedure: as §1

T98G (glioblastoma) = assay: MTT cytotoxicity assay on T98G cells; type: cell-based; conditions: MTT, 24 h incubation; for IC50: Homo sapiens, T98G, read-out: IC50 ± SD, T98G
Procedure: as §1

[3] = test system: CCD-1059Sk (human normal skin fibroblasts); assay: MTT cytotoxicity assay on non-cancerous fibroblasts; type: cell-based; conditions: 24 h incubation, non-cancerous cells; for IC50: Homo sapiens, CCD-1059Sk, read-out: IC50 ± SD, CCD-1059-Sk
Procedure: as §1

[4] = test system: A375, HepG2, LS-180, T98G and CCD-1059Sk cell lines; assay: MTT cytotoxicity assay, summary statements over several cell lines; type: cell-based; conditions: for IC50: Homo sapiens, all cell lines (A375, HepG2, LS-180, T98G, CCD-1059-Sk)
Procedure: as §1

[5] = test system: Candida albicans ATCC 102231; assay: Two-fold microdilution broth method, MIC; type: cell-based; conditions: 35 °C, 24 h; for MIC: Candida albicans, ATCC102231
Excerpt: (§2) Antibacterial and antifungal activities of the free ligands L2, L3 and L4 and the corresponding copper(II) complexes C2, C3 and C4 were screened using the two-fold microdilution broth method. Minimal inhibitory concentrations (MICs) of tested compounds for the panel of reference Gram-positive bacteria, including Staphylococcus aureus ATCC 25923, Staphylococcus aureus ATCC BAA-1707, Staphylococcus epidermidis ATCC 12228, Micrococcus luteus ATCC 10240 and Bacillus cereus ATCC 10876; Gram-negative bacteria, including Salmonella Typhimurium ATCC 14028, Escherichia coli ATCC 25922, Proteus mirabilis ATCC 12453, Klebsiella pneumoniae ATCC 13883 and Pseudomonas aeruginosa ATCC 9027; and yeasts, including Candida albicans ATCC 102231, Candida parapsilosis ATCC 22019 and Candida glabrata ATCC 90030 were determined. The procedure has been described in detail before. Briefly, the solutions of tested compounds dissolved in dimethylosulfoxide (DMSO) were suspended in Mueller–Hinton broth for bacteria or Mueller–Hinton broth with 2% glucose for fungi. Then, the series of two-fold dilutions were carried out in the sterile Nunc™ MicroWell™ 96-Well Microplates (ThermoFisher Scientific Inc.), obtaining concentrations from 1000 to 7.8 mg/L in the appropriate medium. Simultaneously, the inocula of 24 h cultures of microorganisms in sterile physiological saline (0.5 McFarland standard density) were prepared and added to each well, obtaining final density of 5 × 10^5 CFU/mL for bacteria and 5 × 10^4 CFU/mL for yeasts. Proper positive (inoculum without tested compound) and negative (compound without inoculum) controls were added in each microplate. After incubation (35 °C, 24 h), the growth of microorganisms was measured spectrophotometrically at 600 nm (BioTEK ELx808, Bio-Tek Instruments, Inc., Winooski, VT, USA). MICs were marked at the lowest concentration of the compound without the growth of bacteria or fungi.

[6] = test system: Candida glabrata ATCC 90030; assay: Two-fold microdilution broth method, MIC; type: cell-based; conditions: 35 °C, 24 h; for MIC: Nakaseomyces glabratus, ATCC90030
Excerpt: as §2

[7] = test system: Candida parapsilosis ATCC 22019; assay: Two-fold microdilution broth method, MIC; type: cell-based; conditions: 35 °C, 24 h; for MIC: Lodderomyces parapsilosis, ATCC22019
Excerpt: as §2

Candida = assay: Two-fold microdilution broth method, MIC, yeasts (summary); type: cell-based; conditions: range over the three yeast strains; read-out: MIC, anti-Candida activity
Excerpt: Antibacterial and antifungal activities of the free ligands L2, L3 and L4 and the corresponding copper(II) complexes C2, C3 and C4 were screened using the two-fold microdilution broth method. Minimal inhibitory concentrations (MICs) of tested compounds for the panel of reference Gram-positive bacteria, including Staphylococcus aureus ATCC 25923, Staphylococcus aureus ATCC BAA-1707, Staphylococcus epidermidis ATCC 12228, Micrococcus luteus ATCC 10240 and Bacillus cereus ATCC 10876; Gram-negative bacteria, including Salmonella Typhimurium ATCC 14028, Escherichia coli ATCC 25922, Proteus mirabilis ATCC 12453, Klebsiella pneumoniae ATCC 13883 and Pseudomonas aeruginosa ATCC 9027; and yeasts, including Candida albicans ATCC 102231, Candida parapsilosis ATCC 22019 and Candida glabrata ATCC 90030 were determined. The procedure has been described in detail before. Briefly, the solutions of tested compounds dissolved in dimethylosulfoxide (DMSO) were suspended in Mueller–Hinton broth for bacteria or Mueller–Hinton broth with 2% glucose for fungi. […] After incubation (35 °C, 24 h), the growth of microorganisms was measured spectrophotometrically at 600 nm (BioTEK ELx808, Bio-Tek Instruments, Inc., Winooski, VT, USA). […]

| SMILES | IC50 DPPH [1] [µg/mL] | IC50 ABTS [2] | IC50 ± SD, A375 (A375 (melanoma)) [µg/mL] | IC50 ± SD, LS180 (LS-180 (colon cancer)) [µg/mL] | IC50 ± SD, T98G (T98G (glioblastoma)) [µg/mL] | IC50 ± SD, CCD-1059-Sk [3] [µg/mL] | IC50 (A375 (melanoma)) [µg/mL] | IC50 (HepG2 (hepatoma)) [µg/mL] | IC50 (LS-180 (colon cancer)) [µg/mL] | IC50 (T98G (glioblastoma)) [µg/mL] | IC50 [3] [µg/mL] | IC50 [4] [µg/mL] | MIC [5] [µg/mL] | MIC [6] [µg/mL] | MIC [7] [µg/mL] | other results |
| --- | --- | --- | --- | --- | --- | --- | --- | --- | --- | --- | --- | --- | --- | --- | --- | --- |
| O=C1O[C@H]([C@@H](O)CO)C(O)=C1O [Ascorbic acid, reference compound] | 11.65 ± 0.54 (≈ 66.1 µM) | 20.15 ± 0.33 µg/mL (≈ 114 µM) | – | – | – | – | – | – | – | – | – | – | – | – | – | – |
| O=C1CCN1c1cc2ccccc2cn1.O=C1CCN1c1cc2ccccc2cn1.[Cl][Cu][Cl] [C1, Dichloro{bis[1-(Isoquinolin-3-yl)azetidin-2-one]}copper(II)] | 37.45 ± 0.66 | 112.67 ± 1.8 µg/mL | 37.97 ± 3.01 | 11.46 ± 0.69 | 8.25 ± 0.36 | 18.83 ± 0.91 | – | – | – | – | – | – | – | – | – | IC50 ± SD, HepG2 (HepG2 (hepatoma)): 14.89 ± 0.56 µg/mL; IC50, HepG2 and T98G ([4]; range over HepG2 and T98G): 8.25 to 14.89 µg/mL |
| CN1CCN(c2cc3ccccc3cn2)C1=O.[Cl][Cu][Cl] [C3, Dichloro[1-(Isoquinolin-3-yl)-3-methylimidazolidin-2-one]copper(II)] | 380.65 ± 2.74 | 106.19 ± 2.55 µg/mL | 22.78 ± 1.14 | 7.09 ± 0.53 | 10.55 ± 0.74 | 25.17 ± 0.85 | – | – | – | – | – | – | – | – | – | IC50 ± SD, HepG2 (HepG2 (hepatoma)): 12.00 ± 0.36 µg/mL; MIC, C. albicans ATCC 102231 [5]: 1000 µg/mL; MIC, C. glabrata ATCC 90030 [6]: 1000 µg/mL; MIC, C. parapsilosis ATCC 22019 [7]: 1000 µg/mL |
| CCN1CCN(c2cc3ccccc3cn2)C1=O.[Cl][Cu][Cl] [C4, Dichloro[1-ethyl-3-(isoquinolin-3-yl)imidazolidin-2-one]copper(II)] | 26.46 ± 1.04 | 72.5 ± 0.97 µg/mL | 37.80 ± 3.11 | 5.92 ± 0.54 | 9.27 ± 0.11 | 18.25 ± 1.37 | – | – | – | – | – | – | – | – | – | IC50, HepG2, LS180 and T98G ([4]; range over HepG2, LS180 and T98G): 5.92 to 9.27 µg/mL; MIC, C. albicans ATCC 102231 [5]: 500 µg/mL; MIC, C. glabrata ATCC 90030 [6]: >1000 µg/mL; MIC, C. parapsilosis ATCC 22019 [7]: >1000 µg/mL |
| COc1cc([C@@H]2c3cc4c(cc3[C@@H](O[C@@H]3O[C@@H]5CO[C@@H](C)O[C@H]5[C@H](O)[C@H]3O)[C@H]3COC(=O)[C@H]23)OCO4)cc(OC)c1O [Etoposide, etoposide, reference compound] | – | – | – | – | – | – | 10.2 ± 0.83 (≈ 17.3 µM) | 43.2 ± 2.75 (≈ 73.4 µM) | > 100 | > 100 | 83.5 ± 3.19 (≈ 142 µM) | – | – | – | – | – |
| O=C1CCN1c1cc2ccccc2cn1 [L1, 1-(isoquinolin-3-yl)azetidin-2-one] | – | 183.21 ± 2.45 µg/mL (≈ 924 µM) | – | – | – | – | > 200 | > 200 | > 200 | > 200 | > 200 | > 200 | – | – | – | – |
| O=C1NCCN1c1cc2ccccc2cn1 [L2, 1-(isoquinolin-3-yl)imidazolidin-2-one] | – | 82.08 ± 2.77 µg/mL (≈ 385 µM) | – | – | – | – | > 200 | > 200 | > 200 | > 200 | > 200 | > 200 | 500 (≈ 2340 µM) | > 1000 | 1000 (≈ 4690 µM) | melting point: 234 to 236 °C |
| CN1CCN(c2cc3ccccc3cn2)C1=O [L3, 1-(isoquinolin-3-yl)-3-methylimidazolidin-2-one] | – | 96.76 µg/mL and 96.67 ± 2.84 µg/mL | – | – | – | – | > 200 | > 200 | > 200 | > 200 | > 200 | > 200 | 250 (≈ 1100 µM) | 250 (≈ 1100 µM) | 125 (≈ 550 µM) | MIC (Candida): 125 to 250 µg/mL (≈ 550 to 1100 µM) |
| CCN1CCN(c2cc3ccccc3cn2)C1=O [L4, 1-ethyl-3-(isoquinolin-3-yl)imidazolidin-2-one] | – | 108.59 ± 1.51 µg/mL (≈ 450 µM) | – | – | – | – | > 200 | > 200 | > 200 | > 200 | > 200 | > 200 | 1000 (≈ 4140 µM) | 1000 (≈ 4140 µM) | > 1000 | melting point: 151 to 153 °C |

Reference: paper PMC10779222, “Copper(II) Complexes with 1-(Isoquinolin-3-yl)heteroalkyl-2-ones: Synthesis, Structure and Evaluation of Anticancer, Antimicrobial and Antioxidant Potential” (International Journal of Molecular Sciences, 2023)
